# Laboratory results published in ChEMBL document CHEMBL1201862, “PubChem BioAssay data set” (2004).
#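 Growth conditions: 96-well plates. Treatment: test compound, 48 hours, 5 concentrations. Analysis: linear interpolation between bracketing concentrations; unreached endpoints set to highest concentration. The concentration for 50% growth inhibition is given as GI50.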 Calls of active or inactive are those of the source. Cut-off read from the data, not from the text of the source: active = GI50 up to about 1.1 µM and inactive = higher.
# What was measured:
# Assay in all cases: growth of human tumour cells (NCI), 48 h
# MDA-N = system: MDA-N
# NCI-H23 = system: NCI-H23
# M14 = system: M14
# MOLT-4 = system: MOLT-4
# Malme-3M = system: Malme-3M
# NCI/ADR-RES = system: NCI/ADR-RES
# BT-549 = system: BT-549
# EKVX = system: EKVX
# HOP-62 = system: HOP-62
# RXF 393 = system: RXF 393
# SN12C = system: SN12C
# A498 = system: A498
# SK-MEL-28 = system: SK-MEL-28
# SW-620 = system: SW-620
# DU-145 = system: DU-145
# SK-OV-3 = system: SK-OV-3
# SK-MEL-2 = system: SK-MEL-2
# OVCAR-4 = system: OVCAR-4
# NCI-H226 = system: NCI-H226
# HL-60 = system: HL-60
# SNB-19 = system: SNB-19
# NCI-H460 = system: NCI-H460
# HOP-92 = system: HOP-92
# HT-29 = system: HT-29
# K562 = system: K562
# SR = system: SR
# OVCAR-5 = system: OVCAR-5
# NCI-H522 = system: NCI-H522
# 786-0 = system: 786-0
# U-251 = system: U-251
# IGROV-1 = system: IGROV-1
# ACHN = system: ACHN
# UACC-257 = system: UACC-257
# SF-268 = system: SF-268
# HCT-15 = system: HCT-15
# COLO 205 = system: COLO 205
# CCRF-CEM = system: CCRF-CEM
# UACC-62 = system: UACC-62
# T47D = system: T47D
# HCT-116 = system: HCT-116
# MDA-MB-231 = system: MDA-MB-231
# LOX IMVI = system: LOX IMVI
# TK-10 = system: TK-10
# SK-MEL-5 = system: SK-MEL-5
# Hs-578T = system: Hs-578T
# OVCAR-8 = system: OVCAR-8
# MDA-MB-435 = system: MDA-MB-435
# MCF7 = system: MCF7
# SF-539 = system: SF-539
# UO-31 = system: UO-31
# CAKI-1 = system: CAKI-1
# A549 = system: A549
# OVCAR-3 = system: OVCAR-3
# SNB-75 = system: SNB-75
# PC-3 = system: PC-3
# SF-295 = system: SF-295
structure (smiles),measurement,setting,value
Oc1ccc(O)c(CNc2ccc(C(O)C(F)(F)F)cc2)c1 (stereo unspecified),GI50,MDA-N,9.86 µM (inactive)
same,GI50,NCI-H23,21.4 µM (inactive)
same,GI50,M14,14.8 µM (inactive)
same,GI50,MOLT-4,5.01 µM (inactive)
same,GI50,Malme-3M,15.6 µM (inactive)
same,GI50,NCI/ADR-RES,8.43 µM (inactive)
same,GI50,BT-549,12.1 µM (inactive)
same,GI50,EKVX,14.5 µM (inactive)
same,GI50,HOP-62,15.6 µM (inactive)
same,GI50,RXF 393,12.5 µM (inactive)
same,GI50,SN12C,18.1 µM (inactive)
same,GI50,A498,41.4 µM (inactive)
same,GI50,SK-MEL-28,31.6 µM (inactive)
same,GI50,SW-620,32.2 µM (inactive)
same,GI50,DU-145,14.5 µM (inactive)
same,GI50,SK-OV-3,44.3 µM (inactive)
same,GI50,SK-MEL-2,20.1 µM (inactive)
same,GI50,OVCAR-4,16.3 µM (inactive)
same,GI50,NCI-H226,18.4 µM (inactive)
same,GI50,HL-60,3.42 µM (inactive)
same,GI50,SNB-19,44.9 µM (inactive)
same,GI50,NCI-H460,21.5 µM (inactive)
same,GI50,HOP-92,13.6 µM (inactive)
same,GI50,HT-29,32.4 µM (inactive)
same,GI50,K562,11.9 µM (inactive)
same,GI50,SR,6.3 µM (inactive)
same,GI50,OVCAR-5,20.5 µM (inactive)
same,GI50,NCI-H522,1.66 µM (inactive)
same,GI50,786-0,13 µM (inactive)
same,GI50,U-251,35.8 µM (inactive)
same,GI50,IGROV-1,12.9 µM (inactive)
same,GI50,ACHN,13.7 µM (inactive)
same,GI50,UACC-257,18.4 µM (inactive)
same,GI50,SF-268,22.2 µM (inactive)
same,GI50,HCT-15,13.7 µM
same,GI50,COLO 205,18.5 µM (inactive)
same,GI50,CCRF-CEM,3.21 µM (inactive)
same,GI50,UACC-62,15.7 µM (inactive)
same,GI50,T47D,18.1 µM (inactive)
same,GI50,HCT-116,16.7 µM (inactive)
same,GI50,MDA-MB-231,15.6 µM (inactive)
same,GI50,LOX IMVI,14.2 µM (inactive)
same,GI50,TK-10,17.8 µM (inactive)
same,GI50,SK-MEL-5,29.3 µM (inactive)
same,GI50,Hs-578T,41.2 µM (inactive)
same,GI50,OVCAR-8,10.4 µM (inactive)
same,GI50,MDA-MB-435,11.9 µM (inactive)
same,GI50,MCF7,21.8 µM (inactive)
same,GI50,SF-539,4.85 µM (inactive)
same,GI50,UO-31,10.3 µM (inactive)
same,GI50,CAKI-1,16 µM (inactive)
same,GI50,A549,31.6 µM (inactive)
same,GI50,OVCAR-3,3.98 µM (inactive)
same,GI50,SNB-75,12.2 µM (inactive)
same,GI50,PC-3,16.3 µM (inactive)
same,GI50,SF-295,16.4 µM (inactive)
